One assay concerns D3 than D2 receptor. Conditions: cited from earlier work.
For another assay, the target named is rD2L receptor (Rattus norvegicus, UniProt P61169). Conditions: read-out: Ki (nM), rD2L [3H]spiperone; HEK293 cells, mean ± SEM.
In a further assay the target is rD3 receptor (Rattus norvegicus, UniProt P19020).
Sequence of rD3 receptor (P19020 whole entry): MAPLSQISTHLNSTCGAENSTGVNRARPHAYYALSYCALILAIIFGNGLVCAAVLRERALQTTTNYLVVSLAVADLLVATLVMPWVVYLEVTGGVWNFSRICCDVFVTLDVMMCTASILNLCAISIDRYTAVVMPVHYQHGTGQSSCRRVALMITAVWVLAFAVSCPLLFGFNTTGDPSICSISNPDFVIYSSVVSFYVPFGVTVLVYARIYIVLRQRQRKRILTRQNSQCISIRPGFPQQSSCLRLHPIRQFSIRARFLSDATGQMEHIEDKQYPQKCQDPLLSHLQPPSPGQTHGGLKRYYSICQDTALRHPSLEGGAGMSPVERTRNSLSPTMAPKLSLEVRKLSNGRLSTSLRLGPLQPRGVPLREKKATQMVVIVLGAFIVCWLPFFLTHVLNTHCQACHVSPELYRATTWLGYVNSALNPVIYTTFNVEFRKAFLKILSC

Sequence of rD2L receptor (P61169 whole entry): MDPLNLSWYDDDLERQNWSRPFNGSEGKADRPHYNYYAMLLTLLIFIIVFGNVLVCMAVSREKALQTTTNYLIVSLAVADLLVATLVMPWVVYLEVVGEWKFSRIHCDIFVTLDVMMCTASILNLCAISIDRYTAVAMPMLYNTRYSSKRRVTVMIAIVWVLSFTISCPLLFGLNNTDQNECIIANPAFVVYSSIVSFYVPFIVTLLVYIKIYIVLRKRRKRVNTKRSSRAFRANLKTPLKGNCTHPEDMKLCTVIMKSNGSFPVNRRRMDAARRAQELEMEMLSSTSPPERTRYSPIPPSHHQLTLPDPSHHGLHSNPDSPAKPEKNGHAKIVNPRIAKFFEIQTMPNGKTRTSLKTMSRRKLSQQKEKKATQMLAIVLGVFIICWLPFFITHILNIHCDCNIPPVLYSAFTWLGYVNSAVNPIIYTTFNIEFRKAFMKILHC

Regarding `CCCN[C@H]1CCc2nc(N)sc2C1` [pramipexole], the “fold higher affinity for the D3 than D2 receptor” value in the assay with D3 than D2 receptor is reported as 4- to 10 fold.

As a reminder, the Ki is the dissociation constant of the complex between target and ligand, obtained from inhibition or displacement. “N^6-(2-(4-Phenylpiperazin-1-yl)ethyl)-N^6-propyl-5,6,7,8-tetrahydro-1H-naphtho[2,3-d]imidazole-2,6-diamine [Compound 10e]”: the Ki at rD2L receptor came out at 15900 nM; on rD3 receptor (read-out: Ki (nM), rD3 [3H]spiperone, HEK293 cells, mean ± SEM), 1790 nM. Also, the D2L/D3 on rD3 receptor (ratio of Ki rD2L / Ki rD3) is listed as 8.89.

The record behind these values is PMC3760392 (Bioorganic & medicinal chemistry, 2013).
